Values of other authors, collected in publication PMC7289749 (European Journal of Medicinal Chemistry, 2020).
Where two headings read alike, the source gives them in different places.

What was measured:
SARS-CoV-2 [1] = test system: SARS-CoV-2
SARS-CoV-2 [2] = conditions: for EC50: read-out: EC50 (half-maximal effective concentration)
[3] = in animals, relative to CQ
SARS-CoV-2 [4] = conditions: human liver cancer Huh-7 cells
Vero E6 cells = conditions: read-out: CC50 (half-maximal cytotoxic concentration)
SARS-CoV-2 [5] = conditions: read-out: inhibition on the replication of SARS-CoV-2 EC50; dose-dependent
SARS-CoV-2 Mpro = conditions: read-out: SARS-CoV-2 Mpro inhibitory activity IC50

Compound	selectivity index (SI) (SARS-CoV-2 [2]; CC50/EC50, Vero E6 cells)	CC50 (Vero E6 cells) [µM]	other results
O=c1c2ccccc2[se]n1-c1ccccc1 [Ebselen]	–	–	anti-viral activity in cell-based assays (SARS-CoV-2 [1]): effective anti-viral activity
CCN(CC)CCCC(C)Nc1ccnc2cc(Cl)ccc12 (stereo not shown) [Chloroquine]	> 88.50	–	–
CCN(CCO)CCCC(C)Nc1ccnc2cc(Cl)ccc12 (stereo not shown) [Hydroxychloroquine]	–	–	less toxic than CQ [3]: about 40%
Remdesivir	–	–	inhibition of virus infection (SARS-CoV-2 [4]): inhibited virus infection
CC(=O)Oc1ccccc1C(=O)Nc1ncc([N+](=O)[O-])s1 [Nitazoxanide]	> 16.76	> 35.5	EC50 (SARS-CoV-2 [2]): 2.12 µM
N=C(N)Nc1ccc(C(=O)Oc2ccc3cc(C(=N)N)ccc3c2)cc1 [Nafamostat]	–	–	selectivity index (SI) (SARS-CoV-2 [2]): > 4.44
O=c1cc(-c2ccccc2)oc2cc(O)c(O)c(O)c12 [Baicalein]	–	–	EC50 (SARS-CoV-2 [5]): 1.69 µM; IC50 (SARS-CoV-2 Mpro): […]
Nc1nc2c(ncn2CCC(CO)CO)c(=O)[nH]1 [Penciclovir]	> 4.17	> 400	EC50 (SARS-CoV-2 [2]): 96 µM
NC(=O)c1nc(F)c[nH]c1=O [Favipiravir]	–	> 400	–
NC(=O)c1ncn([C@@H]2O[C@H](CO)[C@@H](O)[C@H]2O)n1 [Ribavirin]	> 3.65	> 400	–
